Experimental data taken from paper PMC7160333, “Physiological Role of Glutamate Dehydrogenase in Cancer Cells” (Frontiers in Oncology, 2020).
Read-outs that look alike come from different tables or passages of the source.

Columns and labels:
HepM GDH1 = HepM GDH1 (Rattus norvegicus, UniProt P10860); test: GDH reverse (aminating) reaction activity in hepatoma mitochondria (HepM); assay type: biochemical; details: HepM; for K0.5 NH4+: reverse reaction, Hill equation; for Km: read-out: Km NH4+
Procedure: (§1) Tightly coupled mitochondria were isolated from fed-rat liver (RLM) and AS-30D cells (HepM) as described elsewhere ([89], [90]). […] The resulting mitochondrial fractions were resuspended at 30 to 80 mg protein/mL in SHE buffer with 1 mM PMSF, 1 mM EDTA, 5 mM DTT, and 10% glycerol, and stored at −70°C until use for determination of enzyme activity and Western blotting.

HFF-1 fibroblasts = details: for Duplication time: HFF-1, 2-D culture, n = 3; for Maximal cellular densities: reached at day 5
Procedure: (§3) All cancer and non-cancer cell lines used were purchased from ATCC and cultured in DMEM (Sigma-Aldrich) supplemented with 10% fetal bovine serum (Biowest, Nuaillé, France) and 10,000 U penicillin/streptomycin (Sigma-Aldrich) and placed under a humidified atmosphere of 5% CO2/95% air at 37°C.
(§4) Cell growth was followed by counting cellular density every 24 h during 7 to 8 days. […] The duplication time was determined by using the following equation: n=1/[3.32(logNF-logNI)]/(tF-tI) , where NF represents the number of cultured cells at the end of the exponential growth phase; NI represents the number of cells at the beginning of the growth curve; tF is the final time at which cells were harvested, and tI is the initial culture time. The specific growth rate μ was calculated from the slope of a semilogarithmic plot of cell densities in the exponential growth phase vs. time ([88]).

MDA-MB-231 MCTS = test: MDA-MB-231 multicellular tumor spheroid (MCTS) growth with ammonium; assay type: cell-based, human
Procedure: (§2) After 5 days, the culture medium was refreshed, and the MCTSs formed were placed under slow orbital shaking (20–50 rpm) at 37°C and 95% air/5% CO2. […] The spheroid growth was determined at the indicated times by measuring MCTS diameter with a calibrated reticule (1/10 mm) in an inverted phase contrast microscope (Zeiss, Thornwood, NY, USA) ([86]).

HCT116 cells = details: for Duplication time: HCT116, 2-D culture, n = 3; for Maximal cellular densities: reached at day 7
Procedure: as §3, §4

SiHa cells = details: for Duplication time: 2-D culture, n = 3; for Maximal cellular densities: reached at day 6
Procedure: as §3, §4

MDA-MB-231 cells = details: for Duplication time: MDA-MB-231, 2-D culture, n = 3
Procedure: as §3, §4

RLM GDH1 = RLM GDH1 (Rattus norvegicus, UniProt P10860); test: GDH reverse (aminating) reaction activity in rat liver mitochondria (RLM); assay type: biochemical; details: RLM; for K0.5 NH4+: reverse reaction, Hill equation; for Km: read-out: Km NH4+
Procedure: as §1

MCF-7 cells = system: MCF-7 cells; parameters: method as in PMID 28303961; details: MCF-7, ammonium 2–5 mM; cited from earlier work
HeLa cells = details: for Duplication time: 2-D culture, n = 3; for Maximal cellular densities: reached at day 4
Procedure: as §3, §4

A549 cells = details: for Duplication time: A549, 2-D culture, n = 3; for Maximal cellular densities: reached at day 6
Procedure: as §3, §4

HeLa MCTS = test: HeLa multicellular tumor spheroid (MCTS) growth with ammonium; assay type: cell-based, human
Procedure: as §2

[1] = system: total GDH activity (GDH1 + GDH2) in HeLa and MCF-7 cells; details: 5 mM NH4Cl in culture medium, 5 days, data not shown
3T3 fibroblasts = details: for Duplication time: 3T3, 2-D culture, n = 3; for Maximal cellular densities: reached at day 5
Procedure: as §3, §4

[2] = system: recombinant human GDH isoforms (GDH1 and GDH2), bovine liver GDH, Ox brain GDH, dogfish liver GDH, rat brain GDH, and bovine brain GDH isoforms; parameters: method as in PMID 4381532, PMID 7588764, PMID 17924438, PMID 23420347, PMID 7190024; details: pH range of 7.4–8.7; cited from earlier work
PC3 cells = details: for Maximal cellular densities: reached at day 5
Procedure: as §3, §4

Colo 205 cells = details: for Duplication time: Colo 205, 2-D culture, n = 3; for Maximal cellular densities: reached at day 6
Procedure: as §3, §4

GDH = details: GDH1, reported values; cited from earlier work
DU145 cells = details: for Duplication time: DU145, 2-D culture, n = 3; for Maximal cellular densities: reached at day 5
Procedure: as §3, §4

GDH in HepM and RLM = GDH in HepM and RLM (Rattus norvegicus, UniProt P10860); test: GDH reverse reaction kinetics, summary statements for HepM and RLM; assay type: biochemical
Procedure: The decrease in the absorbance at 340 nm was followed for several minutes (~10 min) to allow for full development of the pronounced enzyme hysteretic behavior, although the initial signal decrease (1–3 min) was taken to calculate the GDH rates. The protein concentration ranges used for each mitochondrial type were well within the linearity range of enzyme activity. To calculate the kinetic parameters, the experimental data were fitted by non-linear regression analysis to the Hill or MWC equation, using the Microcal Origin 5.0 software (OriginLab, Northampton, MA, USA).

cancer cells = test: Viability by trypan blue assay in 2-D cultures with ammonium; assay type: cell-based, human; details: all culture conditions
[3] = pH 7.2, MWC equation, GTP inhibition, saturating ADP
[4] = pH 7.5, MWC equation, GTP inhibition, saturating ADP

Sequence of HepM GDH1 (P10860 54-558): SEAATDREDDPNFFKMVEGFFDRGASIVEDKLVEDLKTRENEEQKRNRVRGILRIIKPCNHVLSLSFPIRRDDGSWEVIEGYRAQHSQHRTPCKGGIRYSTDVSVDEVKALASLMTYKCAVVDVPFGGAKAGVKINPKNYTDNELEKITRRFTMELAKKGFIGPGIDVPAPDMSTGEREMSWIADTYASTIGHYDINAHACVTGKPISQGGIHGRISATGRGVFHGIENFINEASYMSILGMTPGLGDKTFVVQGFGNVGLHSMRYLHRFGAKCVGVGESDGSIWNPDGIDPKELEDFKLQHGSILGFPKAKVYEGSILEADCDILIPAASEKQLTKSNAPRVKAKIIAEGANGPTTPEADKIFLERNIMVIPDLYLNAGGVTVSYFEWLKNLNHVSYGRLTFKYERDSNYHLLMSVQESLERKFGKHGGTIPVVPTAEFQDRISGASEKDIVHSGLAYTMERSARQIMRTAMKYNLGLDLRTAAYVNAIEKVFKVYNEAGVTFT
Sequence of RLM GDH1 (P10860 54-558): as above
Sequence of GDH in HepM and RLM (P10860 54-558): as above

Compound: Cl.N [NH4Cl, Ammonium chloride]
- K0.5 NH4+ (HepM GDH1; pH 7.2, 37°C): 25.2 ± 8 mM
- nH (Hill coefficient) for NH4+ (HepM GDH1; pH 7.2, Hill equation): 2.12 ± 0.7
- Km (HepM GDH1; [3]): 12 ± 2.6 mM
- Km (HepM GDH1; pH 7.2, MWC equation, with ADP): 11.2 ± 3.5 mM
- K0.5 NH4+ (HepM GDH1; pH 7.5, 37°C): 26.8 ± 7.2 mM
- nH (Hill coefficient) for NH4+ (HepM GDH1; pH 7.5, Hill equation): 1.5 ± 0.7
- Km (HepM GDH1; [4]): 10.3 ± 2.6 mM
- Km (HepM GDH1; pH 7.5, MWC equation, with ADP): 9.3 ± 7.2 mM
- Duplication time (HFF-1 fibroblasts; +5 mM NH4Cl): 38 ± 12 h
- Duplication time (HFF-1 fibroblasts; +10 mM NH4Cl): 55 ± 2 h
- Maximal cellular densities (HFF-1 fibroblasts; HFF-1, +5 mM NH4Cl): 60 ± 10 ×10^3
- Maximal cellular densities (HFF-1 fibroblasts; HFF-1, +10 mM NH4Cl): 46 ± 3 ×10^3
- IC50 (HFF-1 fibroblasts; read-out: IC50 for decrease of growth, human HFF-1 fibroblasts, data not shown): ~1000 µM
- MCTS growth (diameter) (MDA-MB-231 MCTS; ammonium 10 mM): clearly toxic
- MCTS growth (diameter) (MDA-MB-231 MCTS; ammonium 0.5–5 mM): promoted enhanced growth rates
- Duplication time (HCT116 cells; +5 mM NH4Cl): 45 ± 1 h
- Duplication time (HCT116 cells; +10 mM NH4Cl): 39 ± 2 h
- Maximal cellular densities (HCT116 cells; HCT116, +5 mM NH4Cl): 76 ± 11 ×10^3
- Maximal cellular densities (HCT116 cells; HCT116, +10 mM NH4Cl): 80 ± 13 ×10^3
- Duplication time (SiHa cells; +5 mM NH4Cl): 51 ± 4 h
- Duplication time (SiHa cells; +10 mM NH4Cl): 55 ± 5 h
- Maximal cellular densities (SiHa cells; +5 mM NH4Cl): 86 ± 7 ×10^3
- Maximal cellular densities (SiHa cells; +10 mM NH4Cl): 82 ± 5 ×10^3
- Duplication time (MDA-MB-231 cells; +5 mM NH4Cl): 26 ± 3 h
- Duplication time (MDA-MB-231 cells; +10 mM NH4Cl): 25 ± 1 h
- Maximal cellular densities (MDA-MB-231 cells; MDA-MB-231, +5 mM NH4Cl, reached at day 4): 145 ± 13 ×10^3
- Rescue of growth after glutamine removal from the culture medium (MDA-MB-231 cells; MDA-MB-231, NH4Cl 1–10 mM, data not shown): did not rescue their growth
- K0.5 NH4+ (RLM GDH1; pH 7.2, 37°C): 23.9 ± 3.7 mM
- nH (Hill coefficient) for NH4+ (RLM GDH1; pH 7.2, Hill equation): 1.97 ± 0.8
- Km (RLM GDH1; [3]): 8.5 ± 4.5 mM
- Km (RLM GDH1; pH 7.2, MWC equation, with ADP): 18 ± 11 mM
- K0.5 NH4+ (RLM GDH1; pH 7.5, 37°C): 18.2 ± 5.9 mM
- nH (Hill coefficient) for NH4+ (RLM GDH1; pH 7.5, Hill equation): 1.4 ± 0.4
- Km (RLM GDH1; [4]): 5.6 ± 3.6 mM
- Km (RLM GDH1; pH 7.5, MWC equation, with ADP): 8.8 ± 4.1 mM
- Cell proliferation (MCF-7 cells): only slightly stimulated
- Duplication time (HeLa cells; +5 mM NH4Cl): 25.5 ± 2 h
- Duplication time (HeLa cells; +10 mM NH4Cl): 24 ± 2 h
- Maximal cellular densities (HeLa cells; +5 mM NH4Cl): 153 ± 13 ×10^3
- Maximal cellular densities (HeLa cells; +10 mM NH4Cl): 163 ± 9 ×10^3
- Rescue of growth after glutamine removal from the culture medium (HeLa cells; NH4Cl 1–10 mM, data not shown): did not rescue their growth
- Duplication time (A549 cells; +5 mM NH4Cl): 20 ± 2 h
- Duplication time (A549 cells; +10 mM NH4Cl): 17 ± 3 h
- Maximal cellular densities (A549 cells; A549, +5 mM NH4Cl): 49 ± 4 ×10^3
- Maximal cellular densities (A549 cells; A549, +10 mM NH4Cl): 56 ± 2 ×10^3
- MCTS growth (diameter) (HeLa MCTS; 5 and 10 mM ammonium): inhibited
- MCTS growth (diameter) (HeLa MCTS; ammonium supplementation): did not stimulate growth
- Change of total GDH activity [1]: did not alter the total GDH activity or induced a slight (~20%) decrease
- Duplication time (3T3 fibroblasts; +5 mM NH4Cl): 46 ± 2 h
- Duplication time (3T3 fibroblasts; +10 mM NH4Cl): 60 ± 1 h
- Maximal cellular densities (3T3 fibroblasts; 3T3, +5 mM NH4Cl): 45 ± 3 ×10^3
- Maximal cellular densities (3T3 fibroblasts; 3T3, +10 mM NH4Cl): 36 ± 2 ×10^3
- IC50 (3T3 fibroblasts; read-out: IC50 for decrease of growth, mouse 3T3 fibroblasts, data not shown): ~1000 µM
- K0.5 NH4+ [2]: 6.5 to 80 mM
- Duplication time (PC3 cells; PC3, 2-D culture, +10 mM NH4Cl, n = 3): 26 ± 1 h
- Maximal cellular densities (PC3 cells; PC3, +5 mM NH4Cl): 136 ± 2 ×10^3
- Maximal cellular densities (PC3 cells; PC3, +10 mM NH4Cl): 141 ± 1.4 ×10^3
- Duplication time (Colo 205 cells; +5 mM NH4Cl): 48 ± 2 h
- Duplication time (Colo 205 cells; +10 mM NH4Cl): 44 ± 4 h
- Maximal cellular densities (Colo 205 cells; Colo 205, +5 mM NH4Cl): 68 ± 6 ×10^3
- Maximal cellular densities (Colo 205 cells; Colo 205, +10 mM NH4Cl): 66 ± 6 ×10^3
- reported K0.5 for ammonium (GDH): 15 to 60 mM
- Proliferation rates (DU145 cells; DU145, 0.1 and 0.5 mM NH4Cl, data not shown): increased proliferation rates
- Duplication time (DU145 cells; +5 mM NH4Cl): 32 ± 2 h
- Duplication time (DU145 cells; +10 mM NH4Cl): 35 ± 3 h
- Maximal cellular densities (DU145 cells; DU145, +5 mM NH4Cl): 92 ± 6 ×10^3
- Maximal cellular densities (DU145 cells; DU145, +10 mM NH4Cl): 85 ± 4 ×10^3
- K0.5 for NH4+ (GDH in HepM and RLM; Hill equation, HepM and RLM, summary): over 20 mM
- Km (GDH in HepM and RLM; MWC equation, pH 7.5, summary of Table 3, read-out: Km for ammonium): ~9 mM
- Viability (cancer cells): higher than 90%
